Data as given in the NIST ThermoML archive (doi:10.1021/je060271a).
Where “and” joins values, the source holds several entries; their conditions need not be identical. Identical values can stand only once. Numbers after ± are expanded uncertainties.

Details: Liquid, Vibrating tube method

CCCCCC(=O)OCC(COC(=O)CCCCC)(COC(=O)CCCCC)COC(=O)CCCCC [pentaerythritol tetrahexanoate]
Details | mass density
323.15 K, 11949 kPa | 980.8 ± 1.2 kg/m3
323.15 K, 11977 kPa | 980.8 ± 1.2 kg/m3
323.15 K, 12000 kPa | 980.8 ± 1.2 kg/m3
323.15 K, 12028 kPa | 980.8 ± 1.2 kg/m3
323.15 K, 12051 kPa | 980.9 ± 1.2 kg/m3
323.15 K, 12077 kPa | 980.9 ± 1.2 kg/m3
323.15 K, 12104 kPa | 981 ± 1.2 kg/m3
323.15 K, 12127 kPa | 980.9 ± 1.2 kg/m3
323.15 K, 12155 kPa | 980.9 ± 1.2 kg/m3
323.15 K, 12178 kPa | 981 ± 1.2 kg/m3
323.15 K, 12205 kPa | 981 ± 1.2 kg/m3
323.15 K, 12233 kPa | 980.9 ± 1.2 kg/m3
323.15 K, 12257 kPa | 981 ± 1.2 kg/m3
323.15 K, 12285 kPa | 981.1 ± 1.2 kg/m3
323.15 K, 12310 kPa | 981.2 ± 1.2 kg/m3
323.15 K, 12338 kPa | 981.1 ± 1.2 kg/m3
323.15 K, 12362 kPa | 981.2 ± 1.2 kg/m3
323.15 K, 12390 kPa | 981.1 ± 1.2 kg/m3
323.15 K, 12414 kPa | 981 ± 1.2 kg/m3
323.15 K, 12442 kPa | 981.2 ± 1.2 kg/m3
323.15 K, 12471 kPa | 981.2 ± 1.2 kg/m3
323.15 K, 12494 kPa | 981.2 ± 1.2 kg/m3
323.15 K, 12523 kPa | 981.3 ± 1.2 kg/m3
323.15 K, 12547 kPa | 981.4 ± 1.2 kg/m3
323.15 K, 12576 kPa | 981.2 ± 1.2 kg/m3
323.15 K, 12605 kPa | 981.4 ± 1.2 kg/m3
323.15 K, 12630 kPa | 981.2 ± 1.2 kg/m3
323.15 K, 12927 kPa | 981.5 ± 1.2 kg/m3
323.15 K, 12950 kPa | 981.5 ± 1.2 kg/m3
323.15 K, 12980 kPa | 981.6 ± 1.2 kg/m3
323.15 K, 13006 kPa | 981.6 ± 1.2 kg/m3
323.15 K, 13029 kPa | 981.6 ± 1.2 kg/m3
323.15 K, 13186 kPa | 981.7 ± 1.2 kg/m3
323.15 K, 13214 kPa | 981.6 ± 1.2 kg/m3
323.15 K, 13237 kPa | 981.6 ± 1.2 kg/m3
323.15 K, 13264 kPa | 981.8 ± 1.2 kg/m3
323.15 K, 13292 kPa | 981.7 ± 1.2 kg/m3
323.15 K, 13315 kPa | 981.8 ± 1.2 kg/m3
323.15 K, 13345 kPa | 981.8 ± 1.2 kg/m3
323.15 K, 13368 kPa | 981.9 ± 1.2 kg/m3
323.15 K, 13396 kPa | 981.8 ± 1.2 kg/m3
323.15 K, 13420 kPa | 981.8 ± 1.2 kg/m3
323.15 K, 13891 kPa | 982.1 ± 1.2 kg/m3
323.15 K, 13918 kPa | 982.1 ± 1.2 kg/m3
323.15 K, 13941 kPa | 982.1 ± 1.2 kg/m3
323.15 K, 13969 kPa | 982.2 ± 1.2 kg/m3
323.15 K, 13992 kPa | 982.2 ± 1.2 kg/m3
323.15 K, 14020 kPa | 982.3 ± 1.2 kg/m3
323.15 K, 14514 kPa | 982.5 ± 1.2 kg/m3
323.15 K, 14565 kPa | 982.6 ± 1.2 kg/m3
323.15 K, 14593 kPa | 982.6 ± 1.2 kg/m3
323.15 K, 14621 kPa | 982.6 ± 1.2 kg/m3
323.15 K, 14645 kPa | 982.6 ± 1.2 kg/m3
323.15 K, 14674 kPa | 982.6 ± 1.2 kg/m3
323.15 K, 14698 kPa | 982.5 ± 1.2 kg/m3
323.15 K, 14726 kPa | 982.7 ± 1.2 kg/m3
323.15 K, 14750 kPa | 982.7 ± 1.2 kg/m3
323.15 K, 14778 kPa | 982.8 ± 1.2 kg/m3
323.15 K, 14807 kPa | 982.7 ± 1.2 kg/m3
323.15 K, 14831 kPa | 982.8 ± 1.2 kg/m3
323.15 K, 15257 kPa | 983 ± 1.2 kg/m3
323.15 K, 15281 kPa | 983.1 ± 1.2 kg/m3
323.15 K, 15309 kPa | 983.1 ± 1.2 kg/m3
323.15 K, 15339 kPa | 983 ± 1.2 kg/m3
323.15 K, 15364 kPa | 983.2 ± 1.2 kg/m3
323.15 K, 15393 kPa | 983.1 ± 1.2 kg/m3
323.15 K, 15417 kPa | 983.1 ± 1.2 kg/m3
323.15 K, 20896 kPa | 986.7 ± 1.2 kg/m3
323.15 K, 22666 kPa | 987.8 ± 1.2 kg/m3
323.15 K, 28442 kPa | 991.1 ± 1.2 kg/m3
323.15 K, 28670 kPa | 991.3 ± 1.2 kg/m3
323.15 K, 28695 kPa | 991.4 ± 1.2 kg/m3
323.15 K, 28724 kPa | 991.4 ± 1.2 kg/m3
323.15 K, 28754 kPa | 991.4 ± 1.2 kg/m3
323.15 K, 28783 kPa | 991.4 ± 1.2 kg/m3
323.15 K, 28808 kPa | 991.4 ± 1.2 kg/m3
323.15 K, 28838 kPa | 991.4 ± 1.2 kg/m3
323.15 K, 28867 kPa | 991.4 ± 1.2 kg/m3
323.15 K, 28897 kPa | 991.6 ± 1.2 kg/m3
323.15 K, 28927 kPa | 991.5 ± 1.2 kg/m3
323.15 K, 28957 kPa | 991.6 ± 1.2 kg/m3
323.15 K, 28982 kPa | 991.5 ± 1.2 kg/m3
323.15 K, 29012 kPa | 991.5 ± 1.2 kg/m3
323.15 K, 29044 kPa | 991.5 ± 1.2 kg/m3
323.15 K, 29070 kPa | 991.5 ± 1.2 kg/m3
323.15 K, 29101 kPa | 991.7 ± 1.2 kg/m3
323.15 K, 29132 kPa | 991.7 ± 1.2 kg/m3
323.15 K, 29158 kPa | 991.6 ± 1.2 kg/m3
323.15 K, 29554 kPa | 991.8 ± 1.2 kg/m3
323.15 K, 29577 kPa | 991.9 ± 1.2 kg/m3
323.15 K, 29762 kPa | 992 ± 1.2 kg/m3
323.15 K, 29785 kPa | 992 ± 1.2 kg/m3
323.15 K, 29812 kPa | 992 ± 1.2 kg/m3
323.15 K, 29839 kPa | 992.1 ± 1.2 kg/m3
323.15 K, 29866 kPa | 992.2 ± 1.2 kg/m3
323.15 K, 29893 kPa | 992.1 ± 1.2 kg/m3
323.15 K, 29921 kPa | 992 ± 1.2 kg/m3
323.15 K, 29944 kPa | 992 ± 1.2 kg/m3
323.15 K, 29972 kPa | 992.2 ± 1.2 kg/m3
323.15 K, 30466 kPa | 992.5 ± 1.2 kg/m3
323.15 K, 30496 kPa | 992.4 ± 1.2 kg/m3
323.15 K, 30520 kPa | 992.4 ± 1.2 kg/m3
323.15 K, 30549 kPa | 992.5 ± 1.2 kg/m3
323.15 K, 31454 kPa | 992.9 ± 1.2 kg/m3
323.15 K, 31474 kPa | 992.9 ± 1.2 kg/m3
323.15 K, 31495 kPa | 993 ± 1.2 kg/m3
323.15 K, 31516 kPa | 993 ± 1.2 kg/m3
323.15 K, 31533 kPa | 993 ± 1.2 kg/m3
323.15 K, 31653 kPa | 993.1 ± 1.2 kg/m3
323.15 K, 31674 kPa | 993.2 ± 1.2 kg/m3
323.15 K, 31695 kPa | 993.2 ± 1.2 kg/m3
323.15 K, 31717 kPa | 993.1 ± 1.2 kg/m3
323.15 K, 31734 kPa | 993.2 ± 1.2 kg/m3
323.15 K, 31755 kPa | 993.1 ± 1.2 kg/m3
323.15 K, 32384 kPa | 993.6 ± 1.2 kg/m3 and 993.5 ± 1.2 kg/m3
323.15 K, 32385 kPa | 993.5 ± 1.2 kg/m3
323.15 K, 32386 kPa | 993.5 ± 1.2 kg/m3
323.15 K, 32387 kPa | 993.6 ± 1.2 kg/m3
323.16 K, 578.8 kPa | 973 ± 1.2 kg/m3
323.16 K, 580.8 kPa | 973.2 ± 1.2 kg/m3
323.16 K, 582.6 kPa | 973.1 ± 1.2 kg/m3
323.16 K, 584.7 kPa | 973 ± 1.2 kg/m3
323.16 K, 586.6 kPa | 973 ± 1.2 kg/m3
323.16 K, 588.7 kPa | 973 ± 1.2 kg/m3
323.16 K, 590.7 kPa | 973.3 ± 1.2 kg/m3
323.16 K, 714.1 kPa | 973.2 ± 1.2 kg/m3
323.16 K, 716.9 kPa | 973.2 ± 1.2 kg/m3
323.16 K, 718.8 kPa | 973.3 ± 1.2 kg/m3
323.16 K, 721.8 kPa | 973.3 ± 1.2 kg/m3
323.16 K, 724 kPa | 973.2 ± 1.2 kg/m3
323.16 K, 727.1 kPa | 973.1 ± 1.2 kg/m3
323.16 K, 729.4 kPa | 973.2 ± 1.2 kg/m3
323.16 K, 732.2 kPa | 973.2 ± 1.2 kg/m3
323.16 K, 735.1 kPa | 973.1 ± 1.2 kg/m3
323.16 K, 737.9 kPa | 973.2 ± 1.2 kg/m3
323.16 K, 1019.3 kPa | 973.3 ± 1.2 kg/m3
323.16 K, 1022.8 kPa | 973.4 ± 1.2 kg/m3
323.16 K, 1026.6 kPa | 973.4 ± 1.2 kg/m3
323.16 K, 1030.3 kPa | 973.5 ± 1.2 kg/m3
323.16 K, 1034.3 kPa | 973.3 ± 1.2 kg/m3
323.16 K, 1037.9 kPa | 973.5 ± 1.2 kg/m3
323.16 K, 1042.3 kPa | 973.3 ± 1.2 kg/m3
323.16 K, 1045.6 kPa | 973.4 ± 1.2 kg/m3
323.16 K, 1049.9 kPa | 973.4 ± 1.2 kg/m3
323.16 K, 1053.7 kPa | 973.4 ± 1.2 kg/m3
